Each structure is given as a SMILES string. Toxic doses and inconclusive results are not listed.

Data on 22 molecules can be found in PubChem BioAssay AID248 (DTP/NCI, 2004).

In the assay the test system is L1210 leukemia ip in BDF1 mice, survival T/C. Nature of the assay: NCI In Vivo Anticancer Drug Screen. Data for tumor model L1210 Leukemia (intraperitoneal) in B6D2F1 (BDF1) mice. The settings on record: higher = longer survival. Put shortly: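 Mice bearing the transplanted tumor received compound or vehicle. Survival of the treated group was divided by that of the vehicle-treated control group to give the ratio.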

Where [1] appears, read: endpoint: mean survival time, dose: 15.0 mg/kg/injection, schedule: Q01DX Z (ip), vehicle: saline.
Where [2] appears, read: endpoint: mean survival time, dose: 60.0 mg/kg/injection, schedule: Q01DX Z (oral), vehicle: saline.
The mark [3] stands for this setting: endpoint: mean survival time, dose: 100.0 mg/kg/injection, schedule: Q04DX003 (ip), vehicle: saline with Tween-80.
[4] abbreviates: endpoint: mean survival time, dose: 200.0 mg/kg/injection, schedule: Q04DX003 (ip), vehicle: saline with Tween-80.
Where [5] appears, read: endpoint: mean survival time, dose: 400.0 mg/kg/injection, schedule: Q04DX003 (ip), vehicle: saline with Tween-80.
The mark [6] stands for this setting: endpoint: mean survival time, dose: 100.0 mg/kg/injection, schedule: Q04DX003 (ip), vehicle: saline.
Setting [7] is: endpoint: mean survival time, dose: 25.0 mg/kg/injection, schedule: Q04DX003 (ip), vehicle: saline with Tween-80.
Where [8] appears, read: endpoint: mean survival time, dose: 50.0 mg/kg/injection, schedule: Q04DX003 (ip), vehicle: saline with Tween-80.
Setting [9] is: endpoint: mean survival time, dose: 100.0 mg/kg/injection, schedule: Q01DX001 (ip), vehicle: saline.
[10] abbreviates: endpoint: mean survival time, dose: 200.0 mg/kg/injection, schedule: Q01DX001 (ip), vehicle: saline.
Setting [11] is: endpoint: mean survival time, dose: 400.0 mg/kg/injection, schedule: Q01DX001 (ip), vehicle: saline.

As to `CN=C(N)c1ccc(NC(=O)c2ccc(C(=O)Nc3ccc(C(N)=NC)cc3)c(Cl)c2)cc1`, the T/C by setting is: (endpoint: mean survival time, dose: 1.88 mg/kg/injection, schedule: Q01DX Z (ip), vehicle: saline) 117 % of control; (endpoint: mean survival time, dose: 7.5 mg/kg/injection, schedule: Q01DX Z (ip), vehicle: saline) 252 % of control; under setting [1], 183 % of control; under setting [2], 105 % of control; (endpoint: mean survival time, dose: 62.5 mg/kg/injection, schedule: Q## X010 (oral), vehicle: saline) 102 % of control; (endpoint: mean survival time, dose: 120.0 mg/kg/injection, schedule: Q01DX Z (oral), vehicle: saline) 102 % of control. For the same molecule, the T/C by setting is: (endpoint: mean survival time, dose: 125.0 mg/kg/injection, schedule: Q## X010 (oral), vehicle: saline) 98 % of control; (endpoint: mean survival time, dose: 240.0 mg/kg/injection, schedule: Q01DX Z (oral), vehicle: saline) 103 % of control; (endpoint: mean survival time, dose: 500.0 mg/kg/injection, schedule: Q## X010 (oral), vehicle: saline) 102 % of control.
As to `CCCC(C)C(=O)Nc1cccc(OC(=O)N(C)C)c1` (stereo not given), the T/C under setting [3] was 95 % of control, the T/C under setting [4] is 96 % of control and the T/C under setting [5] was 93 % of control.
As to `CCCC[N+](C)(C)CCOC(=O)C1C2CC3OC(=O)C1C3C2` (stereo not given), the T/C under setting [6] was 95 % of control.
`NOCc1csc(Nc2ccccc2)n1`: the T/C by setting is: under setting [6], 100 % of control; (endpoint: mean survival time, dose: 200.0 mg/kg/injection, schedule: Q04DX003 (ip), vehicle: saline) 88 % of control.
Take `Nc1ccc(Cl)cc1C(=O)O`: the T/C by setting is: (endpoint: mean survival time, dose: 100.0 mg/kg/injection, schedule: Q01DX001 (ip), vehicle: Klucel (hydroxypropylcellulose) (HPC)) 90 % of control; (endpoint: mean survival time, dose: 200.0 mg/kg/injection, schedule: Q01DX001 (ip), vehicle: Klucel (hydroxypropylcellulose) (HPC)) 101 % of control; (endpoint: mean survival time, dose: 400.0 mg/kg/injection, schedule: Q01DX001 (ip), vehicle: Klucel (hydroxypropylcellulose) (HPC)) 90 % of control.
On to `Cn1c(=S)sc2ccccc21`, for which the T/C under setting [7] was 97 % of control; the T/C under setting [8] is 97 % of control; the T/C (endpoint: mean survival time, dose: 100.0 mg/kg/injection, schedule: Q04DX003 (ip), vehicle: Klucel (hydroxypropylcellulose) (HPC)) is 107 % of control.
As for `CCCCCCC(=O)/C=C\c1ccccc1`, the T/C runs as follows: (endpoint: mean survival time, dose: 100.0 mg/kg/injection, schedule: Q01DX001 (sc), vehicle: other) 94 % of control; (endpoint: mean survival time, dose: 200.0 mg/kg/injection, schedule: Q01DX001 (sc), vehicle: other) 91 % of control; (endpoint: mean survival time, dose: 400.0 mg/kg/injection, schedule: Q01DX001 (sc), vehicle: other) 100 % of control.
With `Nc1cc(C(=O)Nc2ccc(C3=NCCCN3)cc2)ccc1C(=O)Nc1ccc(C2=NCCCN2)cc1`, the T/C was 97 % of control (endpoint: mean survival time, dose: 7.5 mg/kg/injection, schedule: Q01DX Z (oral), vehicle: saline); 93 % of control under setting [1]; 96 % of control (endpoint: mean survival time, dose: 15.0 mg/kg/injection, schedule: Q01DX Z (oral), vehicle: saline); 97 % of control (endpoint: mean survival time, dose: 30.0 mg/kg/injection, schedule: Q01DX Z (oral), vehicle: saline); 103 % of control under setting [2].
On to `CC(C)C(NC(=O)CCNC(=O)OCc1ccccc1)C(=O)O` (stereo not given), for which the T/C runs as follows: under setting [3], 97 % of control; under setting [4], 97 % of control; under setting [5], 97 % of control.
Turning to `Nc1c(Br)cccc1Br`, the T/C is, setting by setting: (endpoint: mean survival time, dose: 50.0 mg/kg/injection, schedule: Q01DX001 (ip), vehicle: saline) 101 % of control; under setting [9], 109 % of control; under setting [10], 103 % of control; under setting [11], 97 % of control.
Take `C=COCCCCCCCCCCCC(CCCCCC)OC=C` (stereo not given): the T/C (endpoint: mean survival time, dose: 100.0 mg/kg/injection, schedule: Q04DX002 (ip), vehicle: Klucel (hydroxypropylcellulose) (HPC)) was 94 % of control and the T/C (endpoint: mean survival time, dose: 200.0 mg/kg/injection, schedule: Q04DX002 (ip), vehicle: Klucel (hydroxypropylcellulose) (HPC)) was 105 % of control.
`COc1ccc(OC)c(/C=C/C(=O)NCC(O)CO)c1` (stereo not given): the T/C was 105 % of control under setting [3], 105 % of control under setting [4] and 103 % of control under setting [5].
`O=C1NC(c2cccc(OCc3ccccc3)c2)Nc2ccccc21` (stereo not given): the T/C by setting is: (endpoint: mean survival time, dose: 50.0 mg/kg/injection, schedule: Q01DX009 (ip), vehicle: Klucel (hydroxypropylcellulose) (HPC)) 105 % of control; (endpoint: mean survival time, dose: 100.0 mg/kg/injection, schedule: Q01DX009 (ip), vehicle: Klucel (hydroxypropylcellulose) (HPC)) 107 % of control; (endpoint: mean survival time, dose: 150.0 mg/kg/injection, schedule: Q01DX009 (ip), vehicle: Klucel (hydroxypropylcellulose) (HPC)) 109 % of control.
Take `N#Cc1ccc(-n2cccc2)cc1`: the T/C reads like this: (endpoint: mean survival time, dose: 100.0 mg/kg/injection, schedule: Q01DX001 (ip), vehicle: steriod suspending solution) 100 % of control; (endpoint: mean survival time, dose: 200.0 mg/kg/injection, schedule: Q01DX001 (ip), vehicle: steriod suspending solution) 100 % of control; (endpoint: mean survival time, dose: 400.0 mg/kg/injection, schedule: Q01DX001 (ip), vehicle: steriod suspending solution) 101 % of control.
Take `CCCCCOc1nccc(N)n1`: the T/C was 105 % of control (endpoint: mean survival time, dose: 25.0 mg/kg/injection, schedule: Q01DX001 (ip), vehicle: saline with Tween-80); 92 % of control (endpoint: mean survival time, dose: 50.0 mg/kg/injection, schedule: Q01DX001 (ip), vehicle: saline with Tween-80); 95 % of control (endpoint: mean survival time, dose: 100.0 mg/kg/injection, schedule: Q01DX001 (ip), vehicle: saline with Tween-80).
Consider `CCOC(=O)NCC(CCCCN(C)C)(c1cccc2ccccc12)C(C)CC` (stereo not given), for which the T/C (endpoint: mean survival time, dose: 12.5 mg/kg/injection, schedule: Q01DX009 (ip), vehicle: saline with Tween-80) is 96 % of control; the T/C (endpoint: mean survival time, dose: 25.0 mg/kg/injection, schedule: Q01DX009 (ip), vehicle: saline with Tween-80) is 97 % of control; the T/C (endpoint: mean survival time, dose: 50.0 mg/kg/injection, schedule: Q01DX009 (ip), vehicle: saline with Tween-80) was 100 % of control.
As to `C=CCC1(/C(=C\CC)CCC)C(=O)NC(=O)NC1=O`, the T/C (endpoint: mean survival time, dose: 75.0 mg/kg/injection, schedule: Q01DX001 (ip), vehicle: saline) is 96 % of control.
On to `c1c(N2CC2)cc(N2CC2)cc1N1CC1`, for which the T/C runs as follows: (endpoint: median survival time, dose: 100.0 mg/kg/injection, schedule: Q01DX009 (ip), vehicle: Klucel (hydroxypropylcellulose) (HPC)) 108 % of control; (endpoint: median survival time, dose: 200.0 mg/kg/injection, schedule: Q01DX009 (ip), vehicle: Klucel (hydroxypropylcellulose) (HPC)) 97 % of control; (endpoint: median survival time, dose: 400.0 mg/kg/injection, schedule: Q01DX009 (ip), vehicle: Klucel (hydroxypropylcellulose) (HPC)) 92 % of control.
As to `Cc1ccc(S(=O)(=O)N/N=C2/CC3CCC(C)(C2)C3)cc1` (stereo not given), the T/C reads like this: (endpoint: mean survival time, dose: 12.5 mg/kg/injection, schedule: Q04DX003 (ip), vehicle: saline with Tween-80) 100 % of control; under setting [7], 98 % of control; under setting [8], 93 % of control.
Consider `CCOC(=O)COc1cc(Cl)c(Cl)cc1Cl`, for which the T/C (endpoint: mean survival time, dose: 75.0 mg/kg/injection, schedule: Q01DX009 (ip), vehicle: gum acacia) is 110 % of control; the T/C (endpoint: mean survival time, dose: 100.0 mg/kg/injection, schedule: Q04DX002 (ip), vehicle: gum acacia) was 100 % of control; the T/C (endpoint: mean survival time, dose: 200.0 mg/kg/injection, schedule: Q04DX002 (ip), vehicle: gum acacia) is 118 % of control; the T/C (endpoint: mean survival time, dose: 400.0 mg/kg/injection, schedule: Q04DX002 (ip), vehicle: gum acacia) was 92 % of control.
Take `O=c1[nH]nc(SC2CCCCC2)c(=O)[nH]1`: the T/C was 108 % of control under setting [9], 108 % of control under setting [10] and 106 % of control under setting [11].
For the molecule `Cc1ccc(C(=O)Oc2ccc(N=C=S)cc2)cc1`, the T/C reads like this: (endpoint: mean survival time, dose: 75.0 mg/kg/injection, schedule: Q01DX001 (ip), vehicle: carboxymethylcellulose (CMC)) 88 % of control; (endpoint: mean survival time, dose: 150.0 mg/kg/injection, schedule: Q01DX001 (ip), vehicle: carboxymethylcellulose (CMC)) 90 % of control; (endpoint: mean survival time, dose: 300.0 mg/kg/injection, schedule: Q01DX001 (ip), vehicle: carboxymethylcellulose (CMC)) 87 % of control.
